From patent US20250188057A1, “NON-AROMATIC CYCLIC-PYRIMIDINE ANALOGS AS GLUCOSYLCERAMIDE SYNTHASE INHIBITORS” (Merck Sharp & Dohme LLC, priority 2022, published 2025) come the findings set out here.

Sequence of glucosylceramide synthase (GCS) (Q16739 whole entry): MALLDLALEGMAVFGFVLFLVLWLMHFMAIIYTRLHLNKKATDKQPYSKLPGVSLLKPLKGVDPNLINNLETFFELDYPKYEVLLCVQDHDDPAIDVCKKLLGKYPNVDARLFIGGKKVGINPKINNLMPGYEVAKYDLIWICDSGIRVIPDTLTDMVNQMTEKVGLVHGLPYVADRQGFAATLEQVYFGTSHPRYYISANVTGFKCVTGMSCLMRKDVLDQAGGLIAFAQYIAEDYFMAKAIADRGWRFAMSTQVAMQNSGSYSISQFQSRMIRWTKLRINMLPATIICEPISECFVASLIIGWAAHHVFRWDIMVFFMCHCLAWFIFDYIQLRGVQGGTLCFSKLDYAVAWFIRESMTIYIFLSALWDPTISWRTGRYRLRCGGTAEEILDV

This test addresses glucosylceramide synthase (GCS) (Homo sapiens (Human), UniProt Q16739). Nature of the test: UDP-Glo glucosylceramide synthase biochemical assay. The note with it: endogenous GCS in Golgi preparations isolated from human A375 malignant melanoma skin cells; UDP detection by luminescence. An excerpt: A UDP-Glo™ glucosylceramide synthase biochemical assay was utilized to evaluate the effect of test compounds on the activity of endogenous levels of GCS enzyme contained within Golgi preparations isolated from human A375 malignant melanoma skin cells. The UDP-Glo™ glucosylceramide synthase assay uses UDP-Glucose as a nucleotide-glycosyl donor and ceramide as substrate acceptor molecules. In the reaction, glucosylceramide synthase (GCS) transfers glucose from UDP-Glucose to ceramide. Glucosylceramide and UDP are released as products.
Using Promega's UDP-Glo™ Glycosyltransferase assay kit (Promega Corporation, Madison, WI, USA (Promega)), GCS activity was indirectly measured by detecting the amount of UDP produced. An aliquot of GCS enzyme (1.5 μg crude golgi preparation, total protein) and titrated test compound were aliquoted to each well and incubated for 30 minutes at room temperature. […] An equivalent volume of substrate mixture was then added to each well. Following a 20 h incubation at room temperature to allow for GCS turnover of substrate, an equal volume of UDP detection reagent (Promega) was added to each well and incubated for an additional 75 minutes at room temperature to simultaneously convert the accumulated UDP product into ATP and generate light in a luciferase reaction. The generated light was detected using a luminometer. […] luminescence values (RLUs) were normalized to mean “min” and “max” effects, as determined on each plate. “Min” was defined as the mean of the values of the wells treated with vehicle (DMSO) and which represent 0% inhibition; “max” was defined as the mean of the values of the wells treated with a reference inhibitor and which represent the 100% effect. Values for % Emax and EC50 were determined by best-fitting the normalized data to a curve in Activity Base along a four-parameter logistic nonlinear regression (4PL) model (based on the Levenberg-Marquardt algorithm and defined by the equation below): […]
where: n is 4PMin (bottom of the curve); m is 4PMax (top of the curve); i is IP (inflection point of curve); and p is slope. See Levenberg, K., “A Method for the Solution of Certain Problems in Least Squares”, Quart. Appl. Math. 2, (1944), pp 164-168 and Marquardt, D., “An Algorithm for Least Squares Estimation on Nonlinear Parameters”, SIAM J. Appl. Math 11, (1963) pp 431-441.
Take `N#Cc1cnc(C2CC2)nc1OC[C@H]1C[C@@H]1c1ccc(F)cn1` [Compound 61, 2-cyclopropyl-4-(((1S,2S)-2-(5-fluoropyridin-2-yl)cyclopropyl)methoxy)pyrimidine-5-carbonitrile]: the IC50 stood at 1030 nM. Next, `N#Cc1cnc(C2CC2)nc1OC[C@@H]1C[C@H]1c1ccc(F)cn1` [Compound 62, 2-cyclopropyl-4-(((1R,2R)-2-(5-fluoropyridin-2-yl)cyclopropyl)methoxy)pyrimidine-5-carbonitrile]: 983 nM; `COc1ccc2c(c1)C(Nc1nc(C3CC3)ncc1C#N)CC2` (stereo not shown) [Compound 63, 2-cyclopropyl-4-((6-methoxy-2,3-dihydro-1H-inden-1-yl)amino)pyrimidine-5-carbonitrile]: 8.6 nM. Next, `N#Cc1cnc(C2CC2)nc1N1CCC2(CC1)Cc1cc(F)ccc1O2` [Compound 64, 2-cyclopropyl-4-(5-fluoro-3H-spiro[benzofuran-2,4′-piperidin]-1′-yl)pyrimidine-5-carbonitrile]: 1350 nM; `N#Cc1cnc(C2CC2)nc1N1Cc2cccn3c(C(=O)NCC4CC4)cc(c23)C1` [Compound 65, 2-(5-cyano-2-cyclopropylpyrimidin-4-yl)-N-(cyclopropylmethyl)-2,3-dihydro-1H-pyrrrolo[3,2,1-ij][1,6]naphthyridine-5-carboxamide]: 119 nM. For the compound `N#Cc1cnc(C2CC2)nc1N1CCc2nc[nH]c2C1c1cccc(F)c1` (stereo not shown) [Compound 66, 2-cyclopropyl-4-(4-(3-fluorophenyl)-3,4,6,7-tetrahydro-5H-imidazo[4,5-c]pyridin-5-yl)pyrimidine-5-carbonitrile], 2040 nM corresponded to half-maximal inhibition (IC50). Next, `CNC(=O)[C@]12CN(c3nc(C4CC4)ncc3C#N)C[C@H]1C(c1ccc(C)cc1)=NO2` [Compound 67, (3aS,6aR)-5-(5-cyano-2-cyclopropylpyrimidin-4-yl)-N-methyl-3-(p-tolyl)-3a,4,5,6-tetrahydro-6aH-pyrrolo[3,4-d]isoxazole-6a-carboxamide]: 207 nM; `N#Cc1cnc(C2CC2)nc1N1CCOCC1c1ccccc1F` (stereo not shown) [Compound 68, 2-cyclopropyl-4-(3-(2-fluorophenyl)morpholino)pyrimidine-5-carbonitrile]: 546 nM; `N#Cc1cnc(C2CC2)nc1N1CCc2c(sn(Cc3ccc(F)cc3)c2=O)C1` [Compound 69, 2-cyclopropyl-4-(2-(4-fluorobenzyl)-3-oxo-3,4,5,7-tetrahydroisothiazolo[5,4-c]pyridin-6(2H)-yl)pyrimidine-5-carbonitrile]: 2760 nM.

With `N#Cc1cnc(C2CC2)nc1N1CCN(Cc2nc(-c3ccc(Cl)cc3)no2)CC1` [Compound 70, 4-(4-((3-(4-chlorophenyl)-1,2,4-oxadiazol-5-yl)methyl)piperazin-1-yl)-2-cyclopropylpyrimidine-5-carbonitrile], the midpoint of inhibition, the IC50, lay at 877 nM. Next, `CC(C)N1C(=O)[C@]2(c3ccsc3)CN(c3nc(C4CC4)ncc3C#N)C[C@@H]2S1(=O)=O` [Compound 71, 2-cyclopropyl-4-((3aS,6aR)-2-isopropyl-1,1-dioxido-3-oxo-3a-(thiophen-3-yl)hexahydro-5H-pyrrolo[3,4-d]isothiazol-5-yl)pyrimidine-5-carbonitrile]: 832 nM; `N#Cc1cnc(C2CC2)nc1N1CC2CCCC1CN(Cc1ccccc1)C2` (stereo not shown) [Compound 72, 4-(3-benzyl-3,9-diazabicyclo[3.3.2]decan-9-yl)-2-cyclopropylpyrimidine-5-carbonitrile]: 1860 nM.

In the case of `N#Cc1cnc(C2CC2)nc1N1CCC(O)(c2cccc(C(F)(F)F)c2)CC1` [Compound 73, 2-cyclopropyl-4-(4-hydroxy-4-(3-(trifluoromethyl)phenyl)piperidin-1-yl)pyrimidine-5-carbonitrile], half-maximal inhibition (IC50) was put at 1110 nM. The result for `N#Cc1cnc(C2CC2)nc1N(CC1CCCO1)CC1CC2C=CC1C2` (stereo not shown) [Compound 74, 4-((bicyclo[2.2.1]hept-5-en-2-ylmethyl)((tetrahydrofuran-2-yl)methyl)amino)-2-cyclopropylpyrimidine-5-carbonitrile] reads 278 nM; that for `N#Cc1cnc(C2CC2)nc1N1CCC2(CC1)NC(=O)Nc1ccccc12` [Compound 75, 2-cyclopropyl-4-(2′-oxo-2′,3′-dihydro-1′H-spiro[piperidine-4,4′-quinazolin]-1-yl)pyrimidine-5-carbonitrile], 1090 nM; that for `N#Cc1cnc(C2CC2)nc1N1CCCC(c2cc3cccnc3[nH]2)C1` (stereo not shown) [Compound 76, 4-(3-(1H-pyrrolo[2,3-b]pyridin-2-yl)piperidin-1-yl)-2-cyclopropylpyrimidine-5-carbonitrile], 1480 nM. For the compound `CCNC(=O)[C@]12CN(c3nc(C4CC4)ncc3C#N)C[C@H]1C(Oc1ccccc1)=NO2` [Compound 77, (3aR)-5-(5-cyano-2-cyclopropylpyrimidin-4-yl)-N-ethyl-3-phenoxy-3a,4,5,6-tetrahydro-6aH-pyrrolo[3,4-b]isoxazole-6a-carboxamide], it took 655 nM to reach half-maximal inhibition (IC50).

For `N#Cc1cnc(C2CC2)nc1N1CCC(N2CCN(Cc3ccc(F)cc3)S2(=O)=O)CC1` [Compound 78, 2-cyclopropyl-4-(4-(5-(4-fluorobenzyl)-1,1-dioxido-1,2,5-thiadiazolidin-2-yl)piperidin-1-yl)pyrimidine-5-carbonitrile], the IC50 was found to be 1800 nM. Against the preceding compound, the IC50 is about 2.7-fold higher. Next, `N#Cc1cnc(C2CC2)nc1N1CCN(Cc2ccccc2)C[C@@H]1COCc1ccccc1` [Compound 79, (R)-4-(4-bnezyl-2-((benzyloxy)methyl)piperazin-1-yl)-2-cyclopropylpyrimidine-5-carbonitrile]: 3260 nM; `COC(=O)C[C@@H]1COc2cc(OC3CN(c4nc(C5CC5)ncc4C#N)C3)ccc21` [Compound 80, methyl (S)-2-(6-((1-(5-cyano-2-cyclopropylpyrimidin-4-yl)azetidin-3-yl)oxy)-2,3-dihydrobenzofuran-3-yl)acetate]: 303 nM. Next, `COC[C@@H](c1ccc(C(F)(F)F)cc1)N1CCN(c2nc(C3CC3)ncc2C#N)C[C@@H]1C` [Compound 81, 2-cyclopropyl-4-((S)-4-((R)-2-methoxy-1-(4-(trifluoromethyl)phenyl)ethyl)-3-methylpiperazin-1-yl)pyrimidine-5-carbonitrile]: 584 nM. As to `N#Cc1cnc(C2CC2)nc1NC1CCN(Cc2ccccc2)C1c1ccccc1` (stereo not shown) [Compound 82, 4-((1-benzyl-2-phenylpyrrolidin-3-yl)amino)-2-cyclopropylpyrimidine-5-carbonitrile], the IC50 came to 770 nM. This IC50 and that of the compound before are within 1.5-fold of each other. `N#Cc1cnc(C2CC2)nc1N1CCC(N(C2CC2)S(=O)(=O)c2ccccc2)CC1` [Compound 83, N-(1-(5-cyano-2-cyclopropylpyrimidin-4-yl)piperidin-4-yl)-N-cyclopropylbenzenesulfonamide]: the IC50 is 1590 nM. `N#Cc1cnc(C2CC2)nc1NC(c1ccccc1)C1(N2CCCCC2)CCC1` (stereo not shown) [Compound 84, 2-cyclopropyl-4-((phenyl(1-(piperidin-1-yl)cyclobutyl)methyl)amino)pyrimidine-5-carbonitrile] came in with an IC50 of 1240 nM. The result for `CNC(=O)C12CN(c3nc(C4CC4)ncc3C#N)CC1C(c1ccc(C)cc1)=NO2` (stereo not shown) [Compound 85, 5-(5-cyano-2-cyclopropylpyrimidin-4-yl)-N-methyl-3-(p-tolyl)-3a,4,5,6-tetrahydro-6aH-pyrrolo[3,4-d]isoxazole-6a-carboxamide] reads 168 nM.
